Data set [1] has as its system dorsal skin of hairless mice. Description: Test Example 8 inhibition of dry skin induced by retinoic acid (TEWL). It is filed as in vivo. Here is the method: The effect of inhibiting dry skin was investigated by the following test method in which the present fumarate was applied to the dry skin induced by retinoic acid. Hairless mice of 10 weeks old at the beginning of the test were used with five mice per group. […] Subsequently, 0.05 mL of a 0.05% retinoic acid solution in 50% ethanol aqueous solution was applied once a day for 4 days. During these 4 days, retinoic acid was applied in the morning, and, some hours later in the afternoon, the sample was applied. […] In Comparative Example 5, a control sample comprising the base alone was used instead of the sample. In Comparative Example 6, the base was always applied. The TEWL values after the application of the samples are as shown below.

The test system of data set [2] is G3PDH mRNA. Briefly: Test Example 7 G3PDH mRNA in keratinocytes with retinoic acid. It is filed as cell-based, human. The settings on record: retinoic acid alone 1 μmol/L, 24 hours. Here is the method: (§1) The amount of amphireglurin expression in the presence of retinoic acid in the keratinocytes was determined by the following method.
(§2) Cultured keratinocytes of human epidermis origin (ex Kurabo Corporation) were used.
(§3) Keratinocyte suspensions was adjusted to a concentration of 400×10^4 units/mL in an MCDB153 culture medium supplemented with BPE (bovine pituitary extract), insulin, ethanolamine, phosphoethanolamine, and hydrocortisone as growth promotors. Four milliliters of the cell suspension was inoculated to a 60 mm plate (ex Falcon Corporation). Under an atmosphere of 95% (v/v) air and 5% (v/v) carbon dioxide gas, a confluent state was achieved by static culturing at 37° C. for 3 days, while refreshing the culture every other day.
(§4) After removing the culture medium supernatant by suction, the culture medium was replaced with an MCDB 153 culture medium (containing insulin) to which bis(diethylene glycol monoethyl ether) fumarate at a final concentration of 300 μmol/L or dimethyl fumarate at 70 μmol/L, and optionally retinoic acid at 1 μmol/L had been added. This plate was subjected to static culturing at 37° C. for 24 hours under an atmosphere consisting of 95%(v/v) air and 5% (v/v) carbon dioxide gas. Using a QIAGEN™ RNA kit, whole mRNA was extracted.

The test system of data set [3] is amphiregulin mRNA. Briefly: Test Example 7 inhibition of amphiregulin expression when used together with retinoic acid. It is filed as cell-based, human. The settings on record: retinoic acid alone 1 μmol/L, 24 hours. Here is the method: as §1, §2, §3, §4
Data set [4] deals with G3PDH mRNA. Briefly: Test Example 4 G3PDH mRNA in keratinocytes (Northern blotting). It is filed as cell-based. The following applies: 24 hours, human keratinocytes. The text has this:
(§5) The HB-EGF expression rates were investigated by the following test methods where the compounds of the present invention were applied on the keratinocytes. Cultured keratinocytes of human epidermis origin, commercially available from Kurabo Corporation, were used. Keratinocyte susupension was adjusted to a concentration of 400×10^4 units/mL on an MCDB153 culture medium supplemented with BPE (bovine pituitary extract), insulin, ethanolamine, phosphoethanolamine, and hydrocortisone as growth promotors. Four milliliters of the cell suspension was inoculated to a 60 mm plate (ex Falcon Corporation). […] This plate was subjected to static culturing at 37° C. for 24 hours under an atmosphere consisting of 95% (v/v) air and 5% (v/v) carbon dioxide gas. Using a QIAGEN™ RNA kit, whole mRNA was extracted. […] The amount of each mRNA per total in the absence of the fumarate was measured as the control. The amount of mRNA in the presence of the fumarate was expressed in % relative to those of the control.

Data set [5] has as its system hairless mouse dorsal skin (epidermal permeability barrier function disrupted by UVB). Briefly: Test 1 epidermal permeability barrier function amelioration test (TEWL after UVB). It is filed as in vivo, hairless mice (Hos: Hr-1). The settings on record: for TEWL change rate 3rd day / TEWL change rate 4th day: mean values. Here is the method:
An effect of improving epidermal permeability barrier function by applying the agents on the skin of which epidermal permeability barrier function has been disrupted was evaluated by the following test method. Male hairless mice (Hos: Hr-1) of 10 weeks old at the beginning of the test were used with each 5 mice per group. Transepidermal water loss (TEWL) was measured as follows using a continuous perspiration measurement device, Hydrograph AMU-100 (ex K & S Co., Ltd.). […] The amount of water vapor in the nitrogen gas was measured before the gas was fed to the capsule and after it was recovered from the capsule. […] The TEWL of the hairless mouse dorsal skin was first measured at the beginning of the test. Subsequently, 0.05 mL of each sample was applied on an area of approximately 2.5 cm diameter in the dorsal skin of the hairless mice once a day from Monday to Friday (pre-application). Then, on the third day from the last day of the pre-application, the skin was irradiated once with ultraviolet B ray (UVB) at a dose of 0.15 J/cm^2. […] TEWL changes with the degree of disruption of the epidermal permeability barrier function. A higher value of TEWL change rate implies a greater degree of disruption of the epidermal permeability barrier function. In the case of the application of the base alone, disruption in the epidermal permeability barrier function by UVB was similar to that in the case of non-application.

Data set [6] has as its system amphiregulin mRNA. Briefly: Test Example 6 inhibition of the expression of amphiregulin in keratinocytes. The format is cell-based. The following applies: 24 hours, human keratinocytes. Here is the method: (§6) The amount of expression of amphiregulin in the keratinocytes was determined by the following test method. Cultured keratinocytes of human epidermis origin (ex Kurabo Corporation) were used. Keratinocyte suspension was adjusted to a concentration of 150×10^4 units/mL in an MCDB153 culture medium supplemented with BPE (bovine pituitary extract), insulin, ethanolamine, phosphoethanolamine, and hydrocortisone as growth promotors. Four milliliters of the cell suspension was inoculated to a 60 mm plate (ex Falcon Corporation). […] This plate was subjected to static culturing at 37° C. for 24 hours under an atmosphere consisting of 95% (v/v) air and 5% (v/v) carbon dioxide gas. Using a QIAGEN™ RNA kit, whole mRNA was extracted. […] The amount of each mRNA per total in the absence of the fumarate was measured as the control. The amount of mRNA in the presence of the fumarate was expressed in % relative to those of the control. (2) Results

Data set [7] concerns skin of Hartley strain guinea pig. Briefly: Test 2 safety (sensitization) maximization test. It is filed as in vivo. The settings on record: for Positivity: 3% induction, examined after 48 hours; for sensitizing potential: in words. Here is the method: Safety (sensitization) was evaluated by a maximization test. An area of 4×6 cm^2 of skin on the scapula of a Hartley strain guinea pig (female) weighing 350 to 400 g was shaved and given intradermal injections with each three injections in two lines according to the following procedures: • (1)each 0.05 mL of Freunds' Complete Adjuvant (hereinafter simply called FCA) was intradermally injected at each one spot in the right and left sites. • (2) each 0.05 mL of a 3% fumaric acid diester derivative solution in ethanol of as a test sample was intradermally injected at another each one spot in the right and left sites. • (3) to a 6% fumaric acid diester derivative solution in FCA as a test sample, the same amount of sterilized water was added and resultant emulsified solution was intradermally injected at a right side and a left side sites in an amount of 0.05 mL.
At one week after the aforementioned procedures, the skin of the same sites was shaved and 10% of sodium lauryl sulfate in vaseline was applied to cause light inflammation. After 24 hours from the application, 0.2 mL of a 3% fumaric diester derivative solution in ethanol as a test sample, which was applied on a piece of gauze, was patched close on the same sites for 48 hours. On the 21st day after the intradermal injection, the abdominal area was shaved, to which a solution of a fumaric acid diester derivative in ethanolas a test sample, which was applied in a piece of gauze, was patched close for 24 hours. The symptoms in the skin were visually examined according to the following criteria after 48 hours.

Data set [8] concerns dorsal skin of aged hairless mice. Here is the method: The following test method was used in order to investigate inhibition of reduction in the epidermis thickness when the compound of the present invention was applied on aged skin.
Experimental animals used included 2 groups of aged hairless mice of 33 weeks old at the beginning of the test with each 5 mice per group, and one group of 5 hairless mice of 9 weeks old at the beginning of the test.
A sample was prepared by adding bis(diethylene glycol monoethyl ether) fumarate to a 50% ethanol aqueous solution (base) at a concentration of 0.5%. This sample was applied in an amount of 0.05 mL on the dorsal skin of hairless mice (in a diameter of approximately 2.5 cm) once a day for consecutive 5 days per week followed by 2 days interval. This schedule was repeated for 4 weeks. Subsequently, a portion of the skin was sampled and a frozen section was prepared. The thickness of the epidermis was measured by microscopic observation.

Data set [9] has as its system dorsal skin of hairless mice. Briefly: Test Example 9 depression of UV-induced epidermal hyperproliferation. It is filed as in vivo. The settings on record: 0.5% in 50% ethanol, 4 weeks pre-application, UVB 0.15 J/cm^2, 4th day after the irradiation; mean values. Here is the method: The inhibition of epidermal hyperproliferation was investigated by the following test method in which the present fumarate was applied to the skin where epidermal hyperproliferation had been induced by UV irradiation Hairless mice of 10 weeks old at the beginning of the test were used with 5 mice per group. […] The animals were slaughtered on the 4th day after the irradiation and skin section were made. From the section, tissue section samples were prepared by HE staining. The samples prepared were photographed using an light microscope. In the microscopic photographs, the thickness of the epidermis was measured. Using the epidermis thickness at the beginning of the test as a standard, the mean values were compared between the control group and the treated groups.

Data set [10] relates to HB-EGF mRNA. Briefly: Test Example 4 HB-EGF expression rate in keratinocytes (Northern blotting). The format is cell-based, human. The settings on record: for Amount of mRNA, % relative to the control, HB-EGF: 24 hours, human keratinocytes.
Excerpt: as §5

Data set [11] has as its system G3PDH mRNA. Briefly: Test Example 6 G3PDH mRNA in keratinocytes. It is filed as cell-based. The settings on record: 24 hours, human keratinocytes. Here is the method:
as §6

[12] abbreviates: Table 1, concentration 1% in 50% aqueous ethanol, 0.05 mL once a day, 3rd day after UVB 0.15 J/cm^2.
Setting [13] is: Table 1, concentration 1% in 50% aqueous ethanol, 4th day after UVB 0.15 J/cm^2.
Setting [14] is: 0.5% sample 5 days pre-application, then 0.05% retinoic acid once a day for 4 days with sample in the afternoon.

The results in this text go back to US7037489B2, “Skin external agents and drugs” (Kanebo Cosmetics, Inc., priority 1999, dated 2006).

Structures can show the parent of a compound that is named as a salt.

In the case of `CC1=C(/C=C/C(C)=C/C=C/C(C)=C/C(=O)O)C(C)(C)CCC1` [Retinoic acid], the “Mean value of TEWL” value in [1] (0.05% retinoic acid once a day for 4 days, base alone instead of the sample (no fumarate)) is 0.110 mg/cm^2/min. In addition, in data set [2], the “Amount of mRNA, % relative to the control, G3PDH” value is 105%. Further, the “Amount of mRNA, % relative to the control, Amphiregulin” value in data set [3] is 300%.
As to `CCOCCOCCOC(=O)/C=C/C(=O)OCCOCCOCC` [bis(diethylene glycol monoethyl ether) fumarate], the “Amount of mRNA, % relative to the control, G3PDH” value stood at 98% in data set [4] (300 μmol/L) and 102% in [11] (300 μmol/L). Also, the “TEWL change rate 3rd day” value came to 3.25 in data set [5] (setting [12]); 7.01 in data set [5] (Table 2, first value column, concentration 0.001%); 6.46 in [5] (Table 2, first value column, concentration 0.01%); 3.79 in [5] (Table 2, first value column, concentration 0.1%); 3.62 in data set [5] (Table 2, first value column, concentration 1%); 7.31 in data set [5] (Table 2, second value column, concentration 0.001%). The “TEWL change rate 3rd day” value is on record as 6.84 in [5] (Table 2, second value column, concentration 0.01%); 5.21 in data set [5] (Table 2, second value column, concentration 0.1%); 4.33 in data set [5] (Table 2, second value column, concentration 1%). The “TEWL change rate 4th day” value in data set [5] (setting [13]) came out at 2.49. The “amelioration of epidermal permeability barrier function” value in data set [5] (in words, compared to the base alone and diphenylethyl fumarate) is “clearly reduces disruption in the epidermal permeability barrier function by UVB”. In addition, the “Mean value of TEWL” value in data set [1] (setting [14]) is 0.055 mg/cm^2/min. Besides, the “Amount of mRNA, % relative to the control, Amphiregulin” value in [6] (300 μmol/L) was 8%. For the same compound, the Positivity in data set [7] is reported as 0%. Further, the sensitizing potential result in data set [7] is listed as “no sensitizing potential”. In addition, the “Mean values of the epidermis thickness” value in data set [8] (33 weeks old hairless mice, 0.5% in 50% ethanol, 0.05 mL once a day 5 days per week for 4 weeks) was 20.96 μm. Moreover, the “inhibition of thinning of the epidermis due to aging” value in data set [8] (in words, compared to the non-treatment) is “thinning of the epidermis due to aging was clearly inhibited”. Also, the “Thickness of the epidermis” value in data set [9] is 61.6 μm. Moreover, the “Amount of mRNA, % relative to the control, HB-EGF” value in data set [10] (300 μmol/L) stood at 380%. Moreover, the “induction of HB-EGF expression” value in data set [10] (in words, 300 μmol/L) is reported as “induced the expression of HB-EGF as strongly as dimethyl fumarate”.
In the case of `COCCOC(=O)/C=C/C(=O)OCCOC` [bis(ethylene glycol monomethyl ether) fumarate], in data set [7], the Positivity is reported as 90% and the sensitizing potential result is reported as “sensitizating potential”.
Turning to “Diphenylethyl fumarate [reference compound]”, in data set [5] (Table 1, concentration printed '.1I' %, 3rd day after UVB), the “TEWL change rate 3rd day” value is listed as 7.82. Further, the “TEWL change rate 4th day” value in [5] (Table 1, concentration printed '.1I' %, 4th day after UVB) is 6.57.
As to `COC(=O)/C=C/C(=O)OC` [Dimethyl fumarate, reference compound], the “Amount of mRNA, % relative to the control, G3PDH” value in data set [4] (50 μmol/L) is given as 105%; in data set [11] (70 μmol/L), 98%. Besides, in data set [5] (setting [12]), the “TEWL change rate 3rd day” value is reported as 3.24. In addition, the “TEWL change rate 4th day” value in data set [5] (setting [13]) worked out at 2.50. Further, in [1] (setting [14]), the “Mean value of TEWL” value is reported as 0.063 mg/cm^2/min. Besides, in data set [6] (70 μmol/L), the “Amount of mRNA, % relative to the control, Amphiregulin” value came out at 39%. Besides, the “Thickness of the epidermis” value in data set [9] was determined as 40.4 μm. Further, the “Amount of mRNA, % relative to the control, HB-EGF” value in data set [10] (50 μmol/L) came out at 470%.
On to `CCOC(=O)/C=C/C(=O)OCC` [Diethyl fumarate], for which, in [7], the Positivity is listed as 90% and the sensitizing potential result was “sensitizating potential”.
